In EP4778922A1, “BICYCLIC COMPOUND, AND PREPARATION METHOD THEREFOR AND PHARMACEUTICAL USE THEREOF” (Shanghai Jeyou Pharmaceutical Co., Ltd., priority 2023, dated 2025):
Like-named read-outs stand apart in the source and are kept apart here.

Legend:
LNCaP cells = assay: Cell proliferation inhibition assay in LNCaP cells (0.2 nM DHT, CellTiter-Glo, 7 days); type: cell-based, human; settings: Homo sapiens, LNCaP, 168 h
Summary of the method: (§1)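 LNCaP and 22RV1 human prostate cancer cells, 3000 per well, exposed to graded compound for 7 days at 37°C, 5% CO2; LNCaP got 0.2 nM DHT 1 h after compound. Viability by CellTiter-Glo luminescence; IC50 from four-parameter variable-slope fit.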

CYP2C19 = biological target: T1, CYP2C19 (Homo sapiens, UniProt P33261); assay: CYP inhibition assay in human liver microsomes; type: in vitro ADME; settings: human liver microsomes, NADPH; read-out: CYPs 2C19 (IC50)
T1 construct: co-incubated with human liver microsomes; from tissue; host or cells: human liver microsomes
T1 sequence (P33261 whole entry): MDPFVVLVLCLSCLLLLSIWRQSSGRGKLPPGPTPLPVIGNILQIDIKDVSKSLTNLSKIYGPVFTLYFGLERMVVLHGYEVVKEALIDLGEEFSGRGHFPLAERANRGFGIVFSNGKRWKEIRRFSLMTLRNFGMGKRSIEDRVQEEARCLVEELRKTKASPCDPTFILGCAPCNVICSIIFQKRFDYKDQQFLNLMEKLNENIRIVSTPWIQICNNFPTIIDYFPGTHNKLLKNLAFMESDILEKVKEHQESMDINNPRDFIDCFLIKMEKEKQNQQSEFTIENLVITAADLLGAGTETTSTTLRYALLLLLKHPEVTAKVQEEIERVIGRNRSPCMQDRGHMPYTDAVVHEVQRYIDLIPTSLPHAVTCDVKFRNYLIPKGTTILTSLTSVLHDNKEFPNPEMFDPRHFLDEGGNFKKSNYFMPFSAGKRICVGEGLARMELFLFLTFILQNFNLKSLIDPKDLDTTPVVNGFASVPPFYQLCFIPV
Protocol: (§2) Test Example 3: CYP Inhibition Assay
(§3) An in vitro assay system was used to evaluate the effects of the compounds on the activities of several human liver microsomal cytochrome P450 (CYP) isozymes (CYP1A2, CYP2C9, CYP2D6, CYP3A4 (testosterone/midazolam), CYP2C19, and CYP2C8). Specific probe substrates for CYP450 isozymes were co-incubated with human liver microsomes and the compound at various concentrations (0, 0.0300, 0.100, 0.300, 1.00, 3.00, 10.0 µM). The reaction was initiated by adding the coenzyme NADPH. After the reaction was completed, the samples were processed, and the metabolites generated from the probe substrates were detected by liquid chromatography-tandem mass spectrometry (LC-MS/MS). Based on the resulting dose-response curves, the IC50 values of the test compounds for the probe substrate reactions catalyzed by each CYP isozyme were calculated.

CYP2C8 = biological target: T2, CYP2C8 (Homo sapiens, UniProt P10632); assay: CYP inhibition assay in human liver microsomes; type: in vitro ADME; settings: human liver microsomes, NADPH; read-out: CYPs 2C8 (IC50)
T2 construct: co-incubated with human liver microsomes; from tissue; host or cells: human liver microsomes
T2 sequence (P10632 1-490): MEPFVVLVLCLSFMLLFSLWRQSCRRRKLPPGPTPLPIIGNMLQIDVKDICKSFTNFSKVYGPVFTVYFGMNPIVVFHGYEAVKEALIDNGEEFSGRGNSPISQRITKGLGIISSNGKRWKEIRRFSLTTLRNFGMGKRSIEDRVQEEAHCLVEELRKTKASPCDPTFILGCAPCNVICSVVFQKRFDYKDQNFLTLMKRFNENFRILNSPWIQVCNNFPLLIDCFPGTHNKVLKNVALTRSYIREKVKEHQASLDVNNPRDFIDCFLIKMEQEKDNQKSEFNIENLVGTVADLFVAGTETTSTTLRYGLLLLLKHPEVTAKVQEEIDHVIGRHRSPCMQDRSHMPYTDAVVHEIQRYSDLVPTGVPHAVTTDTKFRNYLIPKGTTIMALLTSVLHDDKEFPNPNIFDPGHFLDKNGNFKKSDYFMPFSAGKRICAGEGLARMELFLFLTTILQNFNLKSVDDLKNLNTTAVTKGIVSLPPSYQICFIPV
Protocol: as §2, §3

CYP2C9 = biological target: T3, CYP2C9 (Homo sapiens, UniProt P11712); assay: CYP inhibition assay in human liver microsomes; type: in vitro ADME; settings: human liver microsomes, NADPH; read-out: CYPs 2C9 (IC50)
T3 construct: co-incubated with human liver microsomes; from tissue; host or cells: human liver microsomes
T3 sequence (P11712 whole entry): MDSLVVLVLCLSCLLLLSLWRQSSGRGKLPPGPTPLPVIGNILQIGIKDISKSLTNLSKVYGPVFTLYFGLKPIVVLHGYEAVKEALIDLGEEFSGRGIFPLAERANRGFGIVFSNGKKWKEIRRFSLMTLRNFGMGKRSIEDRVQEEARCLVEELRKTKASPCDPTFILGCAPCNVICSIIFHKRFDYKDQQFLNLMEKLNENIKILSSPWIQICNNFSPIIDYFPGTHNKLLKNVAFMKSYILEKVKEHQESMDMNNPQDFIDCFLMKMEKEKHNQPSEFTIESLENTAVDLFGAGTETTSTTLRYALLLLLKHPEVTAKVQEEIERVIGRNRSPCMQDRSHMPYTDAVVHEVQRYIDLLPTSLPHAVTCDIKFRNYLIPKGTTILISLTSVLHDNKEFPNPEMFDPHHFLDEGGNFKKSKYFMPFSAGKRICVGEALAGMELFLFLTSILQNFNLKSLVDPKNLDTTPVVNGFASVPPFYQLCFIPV
Protocol: as §2, §3

[1] = biological target: T4, CYP3A4 (testosterone/midazolam) (Homo sapiens, UniProt P08684); assay: CYP inhibition assay in human liver microsomes; type: in vitro ADME
T4 construct: co-incubated with human liver microsomes; from tissue; host or cells: human liver microsomes
T4 sequence (P08684 whole entry): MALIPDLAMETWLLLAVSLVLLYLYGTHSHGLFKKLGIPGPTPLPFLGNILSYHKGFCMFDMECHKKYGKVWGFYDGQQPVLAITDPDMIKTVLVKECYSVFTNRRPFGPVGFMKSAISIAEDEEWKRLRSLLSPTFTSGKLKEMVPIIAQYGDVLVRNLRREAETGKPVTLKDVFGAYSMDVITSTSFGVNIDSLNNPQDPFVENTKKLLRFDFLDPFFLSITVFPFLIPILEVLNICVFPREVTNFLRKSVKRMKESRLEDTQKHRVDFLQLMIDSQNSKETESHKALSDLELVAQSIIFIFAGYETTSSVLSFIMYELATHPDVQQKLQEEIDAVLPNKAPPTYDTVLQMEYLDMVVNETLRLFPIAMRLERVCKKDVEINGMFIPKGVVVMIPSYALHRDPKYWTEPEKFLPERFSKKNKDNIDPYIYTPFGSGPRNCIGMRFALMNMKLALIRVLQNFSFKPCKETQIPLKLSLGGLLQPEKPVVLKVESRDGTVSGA
Protocol: as §2, §3

22RV1 cells = assay: Cell proliferation inhibition assay in 22RV1 cells (CellTiter-Glo, 7 days); type: cell-based, human; settings: Homo sapiens, 22Rv1, 168 h
Summary of the method: as §1

[2] = Mouse pharmacokinetic test; type: in vivo, ICR mice; settings: plasma; for Tmax: read-out: Tmax; for bioavailability: PO-30mpk vs IV-0.5mpk
Summary of the method: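 Male naive ICR mice (25–30 g, n=3 per route) received a single intravenous or oral dose, with feeding resumed 4 h post-dose. Blood was centrifuged at 4°C, and plasma was stored at -80°C until analysis.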

[3] = probe substrate midazolam, read-out: CYPs 3A4 (Midazolam) (IC50)
[4] = probe substrate testosterone, read-out: CYPs 3A4 (Testosterone) (IC50)

| SMILES | IC50 (LNCaP cells) | IC50 (CYP2C19) | IC50 (CYP2C8) | IC50 (CYP2C9) | IC50 [1, 3] | IC50 [1, 4] | IC50 (22RV1 cells) | AUC(0-inf) ([2]; po, 30 mg/kg, PO-30mpk) | Cmax ([2]; po, 30 mg/kg, PO-30mpk) | half-life ([2]; po, 30 mg/kg, PO-30mpk) | Tmax ([2]; po, 30 mg/kg, PO-30mpk) | C0 ([2]; 0.5 mg/kg, IV-0.5mpk) | clearance ([2]; 0.5 mg/kg, IV-0.5mpk) | bioavailability ([2]; 30 mg/kg) | AUC(0-inf) ([2]; iv, 0.5 mg/kg, IV-0.5mpk) | half-life ([2]; iv, 0.5 mg/kg, IV-0.5mpk) |
| --- | --- | --- | --- | --- | --- | --- | --- | --- | --- | --- | --- | --- | --- | --- | --- | --- |
| CC(C)(c1ccc(-c2cnc(OCc3ccc(-c4ccc(P(C)(C)=O)nn4)cc3)cn2)cc1)c1cc(Cl)c(OCCCl)c(C#N)c1 [Compound 380] | 0.15 µM | > 10 µM | > 10 µM | > 10 µM | > 10 µM | > 10 µM | 0.23 µM |  |  |  |  |  |  |  |  |  |
| CC(C)(c1ccc(-c2ccc(OCc3ccc(-c4cnc(P(C)(C)=O)nc4)nc3)cc2)cc1)c1cc(Cl)c(OCCCl)c(C#N)c1 [Compound 276] | 0.51 µM | > 10 µM | > 10 µM | > 10 µM | > 10 µM | > 10 µM | 0.11 µM | 216 µg·h/mL | 13200 ng/mL | 9 h | 4 h |  |  |  |  |  |
| CC(C)(c1ccc(-c2cnc(OCc3ccnc(N4CC5(C4)CS(=N)(=O)C5)n3)cn2)cc1)c1cc(Cl)c(OCCCl)c(C#N)c1 [Compound 391] | 0.091 µM | > 10 µM | > 10 µM | 10 µM | > 10 µM | > 10 µM | 0.46 µM |  |  |  |  |  |  |  |  |  |
| CC(C)(c1ccc(-c2ncc(OCc3ccnc(N4CC(S(C)(=O)=O)C4)n3)cn2)cc1)c1cc(Cl)c(OCCCl)c(C#N)c1 [Compound 379] | 0.12 µM | > 10 µM | > 10 µM | > 10 µM | > 10 µM | > 10 µM | 0.68 µM |  |  |  |  |  |  |  |  |  |
| CC(C)(c1ccc(-c2ncc(OCc3cnc(-c4cnc(P(C)(C)=O)nc4)cn3)cn2)cc1)c1cc(Cl)c(OCCCl)c(C#N)c1 [Compound 403] | 0.26 µM | > 10 µM | 1.3 µM | > 10 µM | > 10 µM | > 10 µM |  |  |  |  |  |  |  |  |  |  |
| CC(C)(c1ccc(-c2ccc(OCc3ccnc(N4CC(S(C)(=O)=O)C4)n3)cn2)cc1)c1cc(Cl)c(OCCCl)c(C#N)c1 [Compound 85] | 0.33 µM | > 10 µM | > 10 µM | 6.5 µM | > 10 µM | > 10 µM | 0.34 µM | 480 µg·h/mL | 43000 ng/mL | 8.9 h | 2 h | 3110 ng/mL | 0.63 mL/min/kg | 58.3% | 13.7 µg·h/mL | 6.12 h |
| CC(C)(c1ccc(-c2ccc(OCc3ccc(-c4cnc(P(C)(C)=O)nc4)cc3)cc2)cc1)c1cc(Cl)c(OCCCl)c(C#N)c1 [Compound 136] | 0.52 µM | > 10 µM | > 10 µM | > 10 µM | > 10 µM | > 10 µM | 0.23 µM | 242 µg·h/mL | 10100 ng/mL | 16.6 h | 7 h | 3730 ng/mL | 0.49 mL/min/kg | 23.5% | 17.1 µg·h/mL | 14.6 h |
| CC(C)(c1ccc(-c2cnc(OCc3ccc(-c4cnc(P(C)(C)=O)cn4)cc3)cn2)cc1)c1cc(Cl)c(OCCCl)c(C#N)c1 [Compound 381] | 0.11 µM | > 10 µM | > 10 µM | 5.8 µM | > 10 µM | > 10 µM | 0.35 µM |  |  |  |  |  |  |  |  |  |
| CC(C)(c1ccc(-c2cnc(OCc3ccnc(N4CC5(CCS5(=O)=O)C4)n3)cn2)cc1)c1cc(Cl)c(OCCCl)c(C#N)c1 [Compound 376] | 0.1 µM | > 10 µM | > 10 µM | > 10 µM | > 10 µM | > 10 µM | 0.27 µM | 2300 µg·h/mL | 131000 ng/mL | 23 h | 4 h |  |  |  |  |  |
| CC(C)(c1ccc(-c2ccc(C#Cc3cnc(P(C)(C)=O)nc3)cc2)cc1)c1cc(Cl)c(OCCCl)c(C#N)c1 [Compound 109] | 0.57 µM | > 10 µM | 8.8 µM | > 10 µM | > 10 µM | > 10 µM | 0.12 µM | 870 µg·h/mL | 29200 ng/mL | 27.1 h | 4 h | 1580 ng/mL | 0.56 mL/min/kg | 93.6% | 15.5 µg·h/mL | 13.8 h |
| CC(C)(c1ccc(-c2ccc(OCC34CC(c5cnc(P(C)(C)=O)nc5)(C3)C4)cc2)cc1)c1cc(Cl)c(OCCCl)c(C#N)c1 [Compound 320] | 0.26 µM | > 10 µM | 9.1 µM | > 10 µM | > 10 µM | > 10 µM | 0.079 µM |  |  |  |  |  |  |  |  |  |
| CC(C)(c1ccc(-c2ccc(OCc3ccnc(N4CCC(S(C)(=O)=O)CC4)n3)cc2)cc1)c1cc(Cl)c(OCCCl)c(C#N)c1 [Compound 94] | 0.79 µM | > 10 µM | > 10 µM | > 10 µM | > 10 µM | > 10 µM | 0.49 µM |  |  |  |  |  |  |  |  |  |
| CC(C)(c1ccc(-c2cnc(OCc3ccnc(N4CC(S(=O)(=O)C5CC5)C4)n3)cn2)cc1)c1cc(Cl)c(OCCCl)c(C#N)c1 [Compound 387] | 0.05 µM | > 10 µM | > 10 µM | 1.9 µM | > 10 µM | > 10 µM | 0.22 µM |  |  |  |  |  |  |  |  |  |
| CC(C)(c1ccc(-c2ccc(OCc3ccnc(N4CC(S(C)(=O)=O)C4)n3)cc2)cc1)c1cc(Cl)c(OCCCl)c(C#N)c1 [Compound 53] |  | > 10 µM | > 10 µM | > 10 µM | > 10 µM | > 10 µM | 0.28 µM | 421 µg·h/mL | 13200 ng/mL | 28.1 h | 4 h | 2100 ng/mL | 0.59 mL/min/kg | 68.4% | 10.2 µg·h/mL | 33.6 h |
